Assay results published in paper PMC4978154, “Phase I metabolites of mephedrone display biological activity as substrates at monoamine transporters” (British Journal of Pharmacology, 2016).
Where two headings read alike, the source gives them in different places.

What was measured:
hDAT = target: T1, hDAT (Homo sapiens, UniProt Q01959); experiment: Transporter release (superfusion) assay in HEK293 cells expressing hDAT; assay type: cell-based; details: test drug 10 μM, monensin 10 μM; post hoc Bonferroni
T1 construct: expressed in transfected cells
T1 sequence (Q01959 whole entry, the tested form may be a part): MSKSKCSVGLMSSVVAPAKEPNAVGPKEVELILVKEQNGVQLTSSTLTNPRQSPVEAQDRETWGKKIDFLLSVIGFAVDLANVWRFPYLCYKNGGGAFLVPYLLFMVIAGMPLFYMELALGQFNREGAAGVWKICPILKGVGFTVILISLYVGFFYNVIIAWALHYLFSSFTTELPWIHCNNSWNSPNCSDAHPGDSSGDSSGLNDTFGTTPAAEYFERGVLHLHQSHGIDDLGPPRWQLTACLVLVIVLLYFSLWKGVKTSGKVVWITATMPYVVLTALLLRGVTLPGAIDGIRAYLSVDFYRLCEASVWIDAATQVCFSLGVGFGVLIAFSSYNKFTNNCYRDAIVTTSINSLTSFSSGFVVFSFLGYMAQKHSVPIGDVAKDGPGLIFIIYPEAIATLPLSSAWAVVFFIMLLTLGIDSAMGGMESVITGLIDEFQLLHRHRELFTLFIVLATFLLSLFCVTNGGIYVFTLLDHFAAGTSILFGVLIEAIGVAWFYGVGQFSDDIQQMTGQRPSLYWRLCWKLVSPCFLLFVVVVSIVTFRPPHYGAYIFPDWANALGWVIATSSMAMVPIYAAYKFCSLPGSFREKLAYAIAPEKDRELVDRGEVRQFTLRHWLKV
Description: The generation of HEK293 cells stably expressing the human isoforms of DAT (hDAT) and NET (hNET) was carried out as described previously (Scholze et al., 2002). For SERT, the human isoform (hSERT) was cloned in frame with yellow fluorescent protein (Schmid et al., 2001). The generation of a stable cell line was performed as described by Hilber and colleagues (Hilber et al., 2005). HEK293 cells were maintained in humidified atmosphere (5% CO2, 37°C) in DMEM, supplemented with 10% heat‐inactivated FBS and penicillin (100 u 100 mL^−1) and streptomycin (100 μg 100 mL^−1). Selection pressure was maintained by adding geneticin (50 μg·mL^−1) to the cell culture media.
Superfusion experiments were performed as described previously (Scholze et al., 2002). Briefly, HEK293 cells expressing the desired transporter were seeded at a density of 40 000 cells per well onto poly‐D‐lysine‐coated 5 mm glass cover slips in 96‐well plates 24 h prior to the experiment. Cells were preloaded with [^3H]‐MPP^+ (0.1 μM, hDAT and hNET) or [^3H]‐5‐HT (0.4 μM, hSERT) for 20 min at 37°C in a final volume of 100 μL per well. Subsequently, glass coverslips were transferred into small superfusion chambers (volume of 200 μL) and superfused with KHB at 25°C with a superfusion rate of 0.7 mL·min^−1 for 40 min to establish a stable basal efflux. After washout, the collection of 2‐min fractions was initiated. After the first three basal fractions, monensin (10 μM) or solvent was added for four fractions. Consequently, the cells were challenged with test drugs (10 μM) for five fractions in the presence or absence of monensin. Finally, the cells were lysed in 1% SDS to determine the total radioactivity. Radioactivity per fraction was assessed by a liquid scintillation counter and expressed as fractional release, that is, the percentage of released ^3H in relation to total ^3H present at the beginning of the fraction (Sitte et al., 2000). For analysis, release was expressed as AUC.
(§1) Calculations were performed using Microsoft Excel® 2010 (Microsoft Corporation, Redmond, WA, USA) and GRAPHPAD PRISM 5.0. (GraphPad Software Inc., La Jolla, CA, USA). IC50 values for uptake inhibition and EC50 values for release were determined by nonlinear regression fits. Release data expressed as AUC were analysed by one‐way ANOVA followed by Bonferroni's multiple comparison test. Microdialysis and locomotor data were analysed by two‐way ANOVA (drug treatment × time) followed by Bonferroni's test. The effect of monensin treatment on basal efflux of tritiated substrate was analysed with the Mann–Whitney test. P values less than 0.05 (i.e. P < 0.05) were considered significant. The data and statistical analysis comply with the recommendations on experimental design and analysis in pharmacology (Curtis et al., 2015).
Data from uptake inhibition assays cannot distinguish whether test drugs act as non‐transported inhibitors or transportable substrates, which evoke release (Scholze et al., 2000; Sitte et al., 2000; Baumann et al., 2013). Therefore, mephedrone and its metabolites were tested in release assays to further explore their interaction with transporters. The release assays were performed with the same transporter‐expressing HEK293 cell lines described above and used a superfusion system (Sitte et al., 2000). As described previously, efflux of preloaded [^3H]‐MPP^+ or [^3H]‐5‐HT was monitored in the presence or absence of monensin (10 μM) (Scholze et al., 2000). […]

NET = target: T2, NET (Rattus norvegicus, UniProt Q63380); experiment: Transporter release assay in rat brain synaptosomes, NET; assay type: biochemical; details: [3H]-MPP+, mean (95% confidence interval)
T2 construct: a native tissue preparation that contains plasma membrane transporters in situ; from tissue; host or cells: rat whole brain minus striatum and cerebellum, synaptosomes
T2 sequence (Q63380 1-617): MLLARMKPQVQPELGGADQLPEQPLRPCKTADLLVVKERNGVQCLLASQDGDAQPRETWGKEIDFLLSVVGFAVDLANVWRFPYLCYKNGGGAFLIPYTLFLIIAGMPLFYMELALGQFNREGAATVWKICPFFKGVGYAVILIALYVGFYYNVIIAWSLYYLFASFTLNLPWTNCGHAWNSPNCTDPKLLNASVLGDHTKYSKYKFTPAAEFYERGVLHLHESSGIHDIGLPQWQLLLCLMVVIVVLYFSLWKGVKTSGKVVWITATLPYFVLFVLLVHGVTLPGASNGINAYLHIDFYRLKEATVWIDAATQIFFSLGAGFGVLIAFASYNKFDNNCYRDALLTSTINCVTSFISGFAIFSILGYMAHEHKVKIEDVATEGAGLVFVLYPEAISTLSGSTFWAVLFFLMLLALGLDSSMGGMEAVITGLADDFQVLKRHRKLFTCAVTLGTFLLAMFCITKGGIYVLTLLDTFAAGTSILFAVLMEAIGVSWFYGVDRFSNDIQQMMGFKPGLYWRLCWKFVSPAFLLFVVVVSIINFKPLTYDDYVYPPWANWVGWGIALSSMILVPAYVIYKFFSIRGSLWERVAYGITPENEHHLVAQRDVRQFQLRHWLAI
Description: The ability of mephedrone and its metabolites to evoke release via DAT, NET and SERT was determined in rat brain synaptosomes as previously described (Baumann et al., 2012). Rats were killed with CO2, decapitated, and brains were rapidly removed and dissected on ice. Synaptosomes were prepared from striatum for DAT assays, whereas synaptosomes were prepared from whole brain minus striatum and cerebellum for the NET and SERT assays. [^3H]‐MPP^+ (9 nM) was used as the radiolabelled substrate for DAT and NET, whereas [^3H]‐5‐HT (5 nM) was used as the radiolabelled substrate for SERT. All buffers used in the release assays contained 1 μM reserpine to block vesicular uptake of substrates. The selectivity of assays was optimized for a single transporter by including unlabelled compounds [nomifensine and 1‐(2‐diphenylmethoxyethyl)‐4‐(3‐phenylpropyl)piperazine dihydrochloride (GBR12935) for SERT; GBR12935 and citalopram for NET; citalopram and desipramine for DAT] to prevent the uptake of [^3H]‐MPP^+ or [^3H]‐5‐HT by competing transporters. Synaptosomes were preloaded with radiolabelled substrate in Krebs‐phosphate buffer, which consisted of 126 mM NaCl, 2.4 mM KCl, 0.5 mM KH2PO4, 1.1 mM CaCl2, 0.83 mM MgCl2, 0.5 mM Na2SO4, 11.1 mM glucose, 13.7 mM Na2HPO4, 1 mg·mL^−1 ascorbic acid and 50 μM pargyline (pH = 7.4) for 1 h (steady state). […] Assays were terminated by vacuum filtration, and retained radioactivity was quantified by liquid scintillation counting.
as §1, with “(GraphPad Software Inc., La Jolla, CA, USA).” left out, “P values less than 0.05 (i.e. P < 0.05) were considered significant. The data and statistical analysis comply with the recommendations on experimental design and analysis in pharmacology (Curtis et al., 2015).” left out

[1] = EC50 on transporter mediated efflux, NET

Compound: CNC(C)C(=O)c1ccc(C)cc1.Cl (stereo not drawn) [Mephedrone, 2‐Methylamino‐1‐(p‐tolyl)propan‐1‐one hydrochloride]
- enhancement by monensin of drug-evoked [3H]-MPP+ release at hDAT (AUC) (hDAT): significant
- EC50 (NET; [1]): 90 nM

Compound: CNC(C)C(=O)c1ccc(CO)cc1.Cl (stereo not drawn) [4‐OH‐mephedrone, 1‐(4‐(hydroxymethyl)phenyl)‐2‐(methylamino)propan‐1‐one hydrochloride]
- enhancement by monensin of drug-evoked [3H]-MPP+ release at hDAT (AUC) (hDAT): significant
- EC50 (NET; read-out: EC50 on transporter mediated efflux, NET): 150 nM

Compound: Cc1ccc(C(=O)C(C)N)cc1.Cl (stereo not drawn) [Nor‐mephedrone, 2‐amino‐1‐(p‐tolyl)propan‐1‐one hydrochloride]
- enhancement by monensin of drug-evoked [3H]-MPP+ release at hDAT (AUC) (hDAT): significant
- EC50 (NET; [1]): 100 nM
